Measured values from patent US20240294535A1, “IMIDAZOTRIAZINE THIOBENZAMIDE DERIVATIVE, AND PREPARATION METHOD AND APPLICATION THEREOF” (Yunbaiyao Zhengwu Science and Technology (Shanghai) Co., …, priority 2023, published 2024).
pIC50: −log10 of the molar value.

Tests used:
in vivo = settings: both, Kunming, mouse, po
MKN-45 cells = test: Anti-proliferation activity, CTG, MKN-45 cells; format: cell-based; settings: Homo sapiens; MKN-45 cells, 48 h, CTG
Method: (§1) Experimental objective: To evaluate the anti-proliferation activities of the compounds against MKN-45 cells, EBC-1 cells, Hs746T cells and Vero cells.
(§2) Experimental methods: Tumor cell lines were cultured and periodically passaged, and cells in logarithmic growth phase were taken for plate spreading. The cells were stained with Trypan blue, counted and adjusted to an appropriate density. 50 μL of cell suspension was added into each well of a culture plate, and 50 μL of nutrient solution without cells was added into a blank control well. The culture plate was precultured for 24 h in an incubator under the condition of 37° C., 5% CO2 and 100% relative humidity.
(§3) The DMSO stock solutions of the compounds 1-28 and Capmatinib were prepared, and diluted with Tecan D300e. Each compound was diluted to 7 concentration levels: 0.50 μM, 0.125 μM, 0.031 μM, 0.0078 μM, 0.0020 μM, 0.00049 μM, 0.00012 μM. The experiment was carried out in triplicate.
(§4) 50 μL of the solution was added into each designated well, and the culture plate was incubated for 48 h. 50 μL of CTG working solution was added to each well. The culture plate was wrapped with aluminum foil to avoid light and shaken in the shaker for 2 min to induce cell lysis. The culture plate was placed at room temperature for 10 min to stabilize light-emitting signal which was detected with a 2014 EnVision plate reader. Experimental data was processed by GraphPad Prism 7 to calculate IC50.

EBC-1 cells = test: Anti-proliferation activity, CTG, EBC-1 cells; format: cell-based, human; settings: Homo sapiens; EBC-1 cells, 48 h, CTG
Method: as §1, §2, §3, §4

Vero cells = test: Anti-proliferation activity, CTG, Vero cells; format: cell-based; settings: Chlorocebus sabaeus; Vero cells, 48 h, CTG
Method: as §1, §2, §3, §4

Hs746T cells = test: Anti-proliferation activity, CTG, Hs746T cells; format: cell-based; settings: Homo sapiens; Hs746T cells, 48 h, CTG
Method: as §1, §2, §3, §4

c-MET = c-MET (Homo sapiens (Human), UniProt P08581); test: c-MET kinase inhibitory activity (ELISA, poly(Glu,Tyr) substrate); format: biochemical; settings: ATP 4 μM, 37° C. 1 h; read-out: c-MET kinase inhibitory enzymatic activity IC50
Chain of c-MET (P08581 25-1390): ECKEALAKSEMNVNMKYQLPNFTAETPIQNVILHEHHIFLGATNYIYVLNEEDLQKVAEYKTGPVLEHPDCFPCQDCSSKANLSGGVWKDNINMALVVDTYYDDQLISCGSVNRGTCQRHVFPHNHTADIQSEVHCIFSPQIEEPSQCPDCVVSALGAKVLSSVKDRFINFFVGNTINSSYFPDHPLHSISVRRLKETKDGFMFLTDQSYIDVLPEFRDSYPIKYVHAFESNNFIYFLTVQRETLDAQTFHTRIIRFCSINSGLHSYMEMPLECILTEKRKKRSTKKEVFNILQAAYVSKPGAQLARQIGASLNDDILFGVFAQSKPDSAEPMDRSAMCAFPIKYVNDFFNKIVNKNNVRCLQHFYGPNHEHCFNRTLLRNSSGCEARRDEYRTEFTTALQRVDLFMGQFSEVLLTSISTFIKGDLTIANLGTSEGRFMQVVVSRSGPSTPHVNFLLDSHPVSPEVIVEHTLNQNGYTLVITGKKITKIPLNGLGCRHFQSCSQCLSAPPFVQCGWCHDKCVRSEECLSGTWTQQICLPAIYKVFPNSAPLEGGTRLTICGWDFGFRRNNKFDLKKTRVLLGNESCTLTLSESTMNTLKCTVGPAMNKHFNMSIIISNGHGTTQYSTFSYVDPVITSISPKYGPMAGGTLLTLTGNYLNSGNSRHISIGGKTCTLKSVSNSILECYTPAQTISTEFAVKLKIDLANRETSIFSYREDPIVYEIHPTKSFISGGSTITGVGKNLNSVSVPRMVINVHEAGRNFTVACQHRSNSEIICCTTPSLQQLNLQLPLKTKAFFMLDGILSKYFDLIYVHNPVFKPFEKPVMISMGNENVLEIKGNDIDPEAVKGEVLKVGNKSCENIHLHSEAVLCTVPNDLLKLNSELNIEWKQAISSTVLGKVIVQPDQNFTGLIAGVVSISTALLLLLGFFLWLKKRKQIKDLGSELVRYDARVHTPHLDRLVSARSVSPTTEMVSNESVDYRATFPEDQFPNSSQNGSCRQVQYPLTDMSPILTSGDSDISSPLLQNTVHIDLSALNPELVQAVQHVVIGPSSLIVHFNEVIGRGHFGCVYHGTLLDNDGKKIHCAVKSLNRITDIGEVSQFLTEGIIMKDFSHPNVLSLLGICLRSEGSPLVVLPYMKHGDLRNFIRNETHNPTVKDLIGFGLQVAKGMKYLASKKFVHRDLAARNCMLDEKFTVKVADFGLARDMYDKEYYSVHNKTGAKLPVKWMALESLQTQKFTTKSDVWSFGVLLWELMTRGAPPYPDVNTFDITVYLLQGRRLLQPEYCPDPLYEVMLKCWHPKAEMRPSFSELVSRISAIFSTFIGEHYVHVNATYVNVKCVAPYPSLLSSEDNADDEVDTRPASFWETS

[1] = test system: human EBC-1 cell subcutaneous xenograft model; test: In vivo anti-tumor assessment in EBC-1 cell xenograft tumor mouse model; parameters: species or system mice; settings: 10 mg/kg P.O. QD × 15 days; for inhibition of growth of the tumor in mice (tumor volume change): FIG. 2
Method: Experimental objective: To investigate in vivo efficacy of representative compounds on human lung squamous carcinoma cell (human EBC-1 cell) subcutaneous xenograft model.
Experimental methods: The EBC-1 cell xenograft tumor mouse model was used, according to the diameters of tumor, the tumor volume (TV), relative tumor volume (RTV), relative tumor proliferation rate (T/C (%)) and tumor growth inhibition value (TGI (%)) were calculated.
TGI (%) or T/C (%) of the compounds was evaluated. TGI (%) reflects a tumor growth inhibitory rate. TGI (%) was calculated as follows: TGI (%)=[1−(average tumor volume at the end of administration in a treatment group-average tumor volume at the beginning of administration in the treatment group)/(average tumor volume at the end in a solvent control group-average tumor volume at the beginning in the solvent control group)]×100%.
T/C (%) was calculated as follows: T/C (%)=TRTV/CRTV×100%; where TRTV is treatment RTV, and CRTV is negative control RTV. According to the measurement results of the tumor, RTV was calculated, and the calculating formula for RTV is as follows: RTV=Vt/V0; where V0 is the average tumor volume measured on the day of first administration; and Vt is the average tumor volume measured on a specified day. TRTV and CRTV were measured on the same day.

SMILES	LD50 (in vivo)	pIC50 (MKN-45 cells)	pIC50 (EBC-1 cells)	pIC50 (Vero cells)	pIC50 (Hs746T cells)	pIC50 (c-MET)	T/C(%) [1]	TGI(%) [1]	Tumor Volume (Day 15) [1]	inhibition of growth of the tumor in mice (tumor volume change) ([1]; end of the experiment)	changes in body weight of the mice ([1]; end of the experiment, FIG. 1)
CNC(=S)c1ccc(-c2cnc3ncc(Cc4ccc5nccnc5c4)n3n2)cc1F [Compound 17]	318 mg/kg	8.92	8.80	6.91	8.92	11.80	20.42%	96.76%	184 ± 27 mm^3	better inhibitory effects	–
CNC(=O)c1ccc(-c2cnc3ncc(Cc4ccc5ncccc5c4)n3n2)cc1F [Capmatinib, reference compound]	164 mg/kg	8.24	8.41	7.17	8.35	–	24.97%	91.23%	225 ± 25 mm^3	could effectively inhibit the growth of the tumor in mice	greater losses in body weight compared to those in the other groups
